# Source: patent US11980607B2, “Methods of treating malignant lymphoproliferative disorders” (Actuate Therapeutics Inc., priority 2018, dated 2024)
# Columns and labels:
# [1] = test system: SUDHL-4 cell line; experiment: Dose response of combinations (MTS viability, day 3); assay type: cell-based; conditions: SUDHL-4, combined with 0.5 μM 9-ING-41, day 3 MTS
# Method: (§1) FIGS. 2A-2O show the viability of lymphoma cells with chemotherapy agents in combination with 9-ING-41. 10,000 cells (FIGS. 1A, F, K: Daudi; FIGS. 1B, G, L: SUDHL-4; FIGS. 1C, H, M: KPUM-UH1; FIGS. 1D, I, N: Karpas 422; E, J, O: TMD8) were plated per well of a 96-well plate and treated with a dose response series of both 9-ING-41 (0-0.5 μM) and Venetoclax (0-5,000 nM) (FIGS. 1A-E) or BAY-1143572 (0-50 μM) (FIGS. 1F-J) or Idelalisib (0-50 μM) (FIGS. 1K-O) in triplicate. Viability after 3 days was analyzed using the MTS assay. Briefly, 20 μl of MTS reagent was added to cells and incubated for 2 hours and, the absorbance at 490 nm was read using a Biotek plate reader. Relative absorbance is calculated after setting the average absorbance of the no-treatment control as 1. Absorbance at OD=490 nm increases proportionally to cell density.
# (§2) Daudi, SUDHL-4, KPUM-UH1, Karpas 422, or TMD8 cells were treated simultaneously with a series of concentrations of 9-ING-41 (0 μM, 0.05 μM, 0.5 μM) and either Venetoclax (0 nM, 0.5 nM, 5 nM, 50 nM, 500 nM, 5000 nM), BAY-1143572 (0 μM, 0.005 μM, 0.05 μM, 0.5 μM, 5 μM, 50 μM), or Idelalisib (0 μM, 0.005 μM, 0.05 μM, 0.5 μM, 5 μM, 50 μM). Viability at day 3 using an MTS assay was determined as described above. The background absorbance was subtracted from the A490 of the samples and the A490 of the vehicle/no-treatment control was set to 1, and the relative A490s of the rest of the samples were calculated. The IC50 was calculated as the concentration of the drug at which A490 reached 0.5. Additive effects were calculated as a fold change in the IC50 of a novel agent when combined with 0.5 μM of 9-ING-41.
# [2] = test system: KPUMUH1 cell line; experiment: as above; assay type: cell-based; conditions: KPUMUH1, combined with 0.5 μM 9-ING-41, day 3 MTS
# Method: as §1, §2
SMILES,Reduction in the IC50 value on combination with 9-ING-41 [1] [fold],Reduction in the IC50 value on combination with 9-ING-41 [2] [fold]
COc1cc(F)ccc1-c1ncnc(Nc2cccc(C[S@](C)(=N)=O)c2)n1 [BAY-1143572],8,–
CC1(C)CCC(CN2CCN(c3ccc(C(=O)NS(=O)(=O)c4ccc(NCC5CCOCC5)c([N+](=O)[O-])c4)c(Oc4cnc5[nH]ccc5c4)c3)CC2)=C(c2ccc(Cl)cc2)C1 [Venetoclax],8,2
